According to paper PMC8842224 (Journal of Medicinal Chemistry, 2022):
≈ marks a conversion by molar mass, not a printed value. Where two headings read alike, the source gives them in different places. Marks after values point to notes of the source that are not given here.

What was measured:
A3 = details: printed in Figure 2; cited from earlier work
A2A = details: cited from earlier work
A1 = details: cited from earlier work
P-glycoprotein (P-gp) = P-glycoprotein (P-gp) (Homo sapiens, UniProt P08183); details: MDCK-MDR1 cells, NA = not active
Sequence of P-glycoprotein (P-gp) (P08183 whole entry): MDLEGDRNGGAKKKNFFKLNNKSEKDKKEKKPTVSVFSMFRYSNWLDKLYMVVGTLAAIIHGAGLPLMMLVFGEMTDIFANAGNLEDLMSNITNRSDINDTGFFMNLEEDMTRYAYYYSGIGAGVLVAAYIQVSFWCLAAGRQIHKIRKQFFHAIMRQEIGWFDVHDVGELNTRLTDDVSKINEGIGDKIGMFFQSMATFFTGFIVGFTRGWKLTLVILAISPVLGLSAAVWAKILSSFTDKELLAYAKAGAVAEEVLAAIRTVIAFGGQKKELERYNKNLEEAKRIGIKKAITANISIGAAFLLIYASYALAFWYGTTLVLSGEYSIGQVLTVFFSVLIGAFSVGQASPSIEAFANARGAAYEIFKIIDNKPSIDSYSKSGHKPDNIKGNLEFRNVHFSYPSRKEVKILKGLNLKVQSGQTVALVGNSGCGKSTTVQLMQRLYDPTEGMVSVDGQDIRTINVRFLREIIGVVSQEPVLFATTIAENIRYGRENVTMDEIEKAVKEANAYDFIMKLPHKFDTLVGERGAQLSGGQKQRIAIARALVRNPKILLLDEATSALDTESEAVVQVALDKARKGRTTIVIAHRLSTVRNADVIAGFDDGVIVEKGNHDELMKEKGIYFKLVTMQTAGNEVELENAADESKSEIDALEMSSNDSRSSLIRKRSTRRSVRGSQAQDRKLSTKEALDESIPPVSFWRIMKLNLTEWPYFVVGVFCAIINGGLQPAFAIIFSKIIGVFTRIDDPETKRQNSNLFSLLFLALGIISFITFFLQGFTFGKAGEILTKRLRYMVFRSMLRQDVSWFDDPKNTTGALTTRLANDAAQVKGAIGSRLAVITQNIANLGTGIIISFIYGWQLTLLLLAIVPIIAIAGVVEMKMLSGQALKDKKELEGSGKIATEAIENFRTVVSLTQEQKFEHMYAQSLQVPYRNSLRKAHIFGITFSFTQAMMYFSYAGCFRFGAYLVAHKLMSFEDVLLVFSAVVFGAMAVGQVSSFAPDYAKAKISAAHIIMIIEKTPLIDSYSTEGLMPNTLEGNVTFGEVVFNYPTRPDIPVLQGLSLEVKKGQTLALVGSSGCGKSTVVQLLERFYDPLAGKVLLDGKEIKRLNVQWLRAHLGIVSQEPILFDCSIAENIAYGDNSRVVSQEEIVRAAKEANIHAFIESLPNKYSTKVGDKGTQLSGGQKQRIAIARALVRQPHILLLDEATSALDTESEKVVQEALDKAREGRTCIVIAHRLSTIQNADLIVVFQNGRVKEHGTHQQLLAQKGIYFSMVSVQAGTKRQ

human A1AR [1] = target: T1, human A1AR (Homo sapiens, UniProt P30542); details: for Exp absolute binding affinity (ΔGbind): experimental, A1AR; for Ki: read-out: hA1 Ki, displacement of specific [3H]DPCPX binding, human CHO cells, ± SEM, n = 3
T1 sequence (P30542 1-326): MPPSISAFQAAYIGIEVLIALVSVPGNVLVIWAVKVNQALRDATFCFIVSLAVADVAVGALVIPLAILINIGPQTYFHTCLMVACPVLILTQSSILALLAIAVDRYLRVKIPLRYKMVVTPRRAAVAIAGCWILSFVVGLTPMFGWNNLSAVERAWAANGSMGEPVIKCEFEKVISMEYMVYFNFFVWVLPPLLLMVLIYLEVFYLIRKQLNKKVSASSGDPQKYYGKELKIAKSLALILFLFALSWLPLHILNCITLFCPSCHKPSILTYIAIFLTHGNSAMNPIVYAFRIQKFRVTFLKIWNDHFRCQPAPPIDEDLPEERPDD

human A1AR [2] = target: T1, human A1AR; test: biochemical
hA3 = target: T2, hA3 (Homo sapiens, UniProt P0DMS8); test: cAMP functional assay, inhibition of NECA effect; type: cell-based; details: read-out: hA3 % Inhib. NECA (1 μM)
T2 sequence (P0DMS8 1-318): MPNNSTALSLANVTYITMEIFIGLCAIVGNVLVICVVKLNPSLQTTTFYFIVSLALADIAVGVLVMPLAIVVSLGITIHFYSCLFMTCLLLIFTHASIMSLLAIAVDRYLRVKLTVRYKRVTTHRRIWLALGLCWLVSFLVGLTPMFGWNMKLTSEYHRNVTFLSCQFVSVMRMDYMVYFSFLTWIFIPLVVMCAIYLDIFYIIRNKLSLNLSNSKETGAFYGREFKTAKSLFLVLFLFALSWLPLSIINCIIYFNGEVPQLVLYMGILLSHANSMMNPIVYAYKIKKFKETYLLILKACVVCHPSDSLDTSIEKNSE

in vitro = details: human, microsomes, pH 7.4
[3] = Aqueous solubility by nephelometry in PBS; details: pH 7.4
hA2B = target: T3, hA2B (Homo sapiens, UniProt P29275); test: cAMP functional assay, inhibition of NECA effect; type: cell-based; details: read-out: hA2B % Inhib. NECA (1 μM)
T3 sequence (P29275 1-332): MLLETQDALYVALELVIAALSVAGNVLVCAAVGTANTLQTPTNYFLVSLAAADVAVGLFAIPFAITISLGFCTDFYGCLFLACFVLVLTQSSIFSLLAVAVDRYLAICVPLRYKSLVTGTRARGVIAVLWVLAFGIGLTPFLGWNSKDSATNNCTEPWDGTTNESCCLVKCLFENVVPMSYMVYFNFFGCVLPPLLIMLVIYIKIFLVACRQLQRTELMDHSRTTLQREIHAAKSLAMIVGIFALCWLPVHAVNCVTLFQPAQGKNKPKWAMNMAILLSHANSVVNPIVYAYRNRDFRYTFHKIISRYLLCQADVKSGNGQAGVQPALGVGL

hA2A = hA2A (Homo sapiens, UniProt P29274); test: cAMP functional assay, inhibition of NECA effect; type: cell-based; details: read-out: hA2A % Inhib. NECA (1 μM)
Sequence of hA2A (P29274 whole entry): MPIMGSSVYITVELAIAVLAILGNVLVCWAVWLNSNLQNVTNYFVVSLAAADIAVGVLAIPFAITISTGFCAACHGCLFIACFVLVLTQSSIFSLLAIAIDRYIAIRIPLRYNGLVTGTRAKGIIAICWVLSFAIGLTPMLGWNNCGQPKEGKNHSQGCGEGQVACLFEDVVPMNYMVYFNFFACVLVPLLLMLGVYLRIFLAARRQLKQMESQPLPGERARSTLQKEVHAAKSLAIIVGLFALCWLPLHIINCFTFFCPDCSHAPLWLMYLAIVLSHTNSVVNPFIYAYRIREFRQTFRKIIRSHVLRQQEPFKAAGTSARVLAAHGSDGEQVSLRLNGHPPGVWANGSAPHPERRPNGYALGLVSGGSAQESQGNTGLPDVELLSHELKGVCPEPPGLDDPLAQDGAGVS

human A2AAR = human A2AAR (Homo sapiens, UniProt P29274); details: read-out: hA2A Ki; displacement of specific [3H]ZM241385 binding, human HeLa cells, ± SEM, n = 3
Sequence of human A2AAR (P29274 whole entry): as above

human A2BAR [4] = target: T4, human A2BAR (Homo sapiens, UniProt P29275); details: read-out: hA2B Ki; displacement of specific [3H]DPCPX binding, human HEK-293 cells, ± SEM, n = 3
T4 sequence (P29275 1-332): T3 sequence (P29275 1-332)

human A2BAR [5] = target: T4, human A2BAR; test: biochemical; details: read-out: hA2B percentage displacement of specific binding at 1 μM
[6] = human microsomes
hA1ARs = target: T5, hA1ARs (Homo sapiens, UniProt P30542); details: NECA 100 nM, forskolin 3 μM
T5 sequence (P30542 1-326): T1 sequence (P30542 1-326)

Nc1cc(-c2ccc3c(c2)OCO3)nc(-c2ccccc2)n1 [15b]
A3 (1μM) (A3): 15%

N#Cc1c(NC(=O)C2CCCC2)nc(-c2ccccc2)nc1-c1ccc2c(c1)OCO2 [15c]
A2A (1μM) (A2A): 14% | A3 (1μM) (A3): 27%

Nc1nc(-c2ccccc2)cc(-c2ccccc2)n1 [17a]
Ki (A1): 0.0177 µM

CNc1nc(-c2ccccc2)c(C#N)c(-c2ccc(F)cc2F)n1 [19af]
Calcein-AM transport inhibition at 100 μM (P-glycoprotein (P-gp)): 44% ^a | Exp absolute binding affinity (ΔGbind) (human A1AR [1]): -10.42 kcal/mol | Ki (human A1AR [1]): 0.0226 ± 0.007 µM | Ki (human A1AR [2]): < 0.05 µM

CNc1nc(-c2ccccc2)c(C#N)c(-c2cc(Cl)cc(Cl)c2)n1 [19aj]
Exp absolute binding affinity (ΔGbind) (human A1AR [1]): -10.32 kcal/mol | Ki (human A1AR [1]): 0.027 ± 0.0036 µM | Ki (human A1AR [2]): < 0.05 µM

CNc1nc(-c2ccccc2)c(C#N)c(-c2ccc3c(c2)OCO3)n1 [19ao]
Calcein-AM transport inhibition at 100 μM (P-glycoprotein (P-gp)): 59% ^a | inhibition at 1 µM (hA3): 5% | half-life (in vitro): 15.2 min | solubility at 2 h [3]: 5.4 µM (≈ 1.78 µg/mL) | inhibition at 1 µM (hA2B): 1% | inhibition at 1 µM (hA2A): 18%

N#Cc1c(-c2ccccc2)nc(Nc2ccccc2)nc1-c1ccc2c(c1)OCO2 [19aq]
Ki (human A2AAR): 0.028 ± 0.0096 µM | Ki (human A2BAR [4]): 0.188 ± 0.023 µM | Ki (human A1AR [1]): 0.0114 ± 0.0037 µM

N#Cc1c(-c2ccccc2)nc(Nc2ccccc2)nc1-c1ccco1 [19au]
Ki (human A2AAR): 0.00215 ± 0.00011 µM | Ki (human A2BAR [4]): 0.0147 ± 0.0049 µM | Ki (human A1AR [1]): 0.0337 ± 0.0073 µM

CNc1nc(-c2ccccc2)c(C#N)c(-c2ccsc2)n1 [19az]
A1AR selectivity (human A1AR [1]): > 1000 fold | Exp relative binding affinity (ΔΔGbind) (human A1AR [1]; Lig 2 relative to Lig 1 = 19a): 0.91 kcal/mol | Exp relative binding affinity (ΔΔGbind) (human A1AR [1]; Lig 2 relative to Lig 1 = 19bb): -0.17 kcal/mol | Exp absolute binding affinity (ΔGbind) (human A1AR [1]): -10.05 kcal/mol | Ki (human A1AR [1]): 0.0428 ± 0.0037 µM | Ki (human A1AR [2]): < 0.05 µM

CNc1nc(-c2ccccc2)c(C#N)c(-c2cccnc2)n1 [19bd]
A1AR selectivity (human A1AR [1]): > 1000 fold | Exp relative binding affinity (ΔΔGbind) (human A1AR [1]; Lig 2 relative to Lig 1 = 19a): 0.44 kcal/mol | Exp relative binding affinity (ΔΔGbind) (human A1AR [1]; Lig 2 relative to Lig 1 = 19bb): -0.64 kcal/mol | Exp absolute binding affinity (ΔGbind) (human A1AR [1]): -10.52 kcal/mol | Ki (human A1AR [1]): 0.0193 ± 0.0071 µM | Ki (human A1AR [2]): < 0.05 µM

CCNc1nc(-c2ccccc2)c(C#N)c(-c2cccnc2)n1 [19be]
Ki (human A2AAR): 0.335 ± 0.018 µM | Ki (human A1AR [1]): 0.0118 ± 0.0035 µM | inhibition at 1 µM (human A2BAR [5]): 1%

N#Cc1c(-c2ccccc2)nc(Nc2ccccc2)nc1-c1ccccc1F [19e]
Ki (human A2AAR): 0.0525 ± 0.0062 µM | Ki (human A2BAR [4]): 0.107 ± 0.01 µM | Ki (human A1AR [1]): 0.00625 ± 0.00102 µM

CNc1nc(-c2ccccc2)c(C#N)c(-c2cccc(Cl)c2)n1 [19l]
inhibition at 1 µM (hA3): 9% | half-life (in vitro): 6.24 min | solubility at 2 h [3]: 75.4 µM (≈ 24.2 µg/mL) | inhibition at 1 µM (hA2B): 11% | inhibition at 1 µM (hA2A): 16%

CNc1nc(-c2ccccc2)c(C#N)c(-c2cccc(C#N)c2)n1 [19s]
Ki (human A2AAR): 0.0785 ± 0.0067 µM | Ki (human A2BAR [4]): 0.0346 ± 0.0057 µM | Exp relative binding affinity (ΔΔGbind) (human A1AR [1]; Lig 2 relative to Lig 1 = 19a): -0.66 kcal/mol | Exp absolute binding affinity (ΔGbind) (human A1AR [1]): -11.62 kcal/mol | Ki (human A1AR [1]): 0.00299 ± 0.00071 µM

CCNc1nc(-c2ccccc2)c(C#N)c(-c2cccc(C#N)c2)n1 [19t]
Ki (human A2AAR): 0.155 ± 0.021 µM | Ki (human A2BAR [4]): 0.0142 ± 0.0038 µM | Ki (human A1AR [1]): 0.00246 ± 0.00018 µM

CNc1nc(-c2ccccc2)c(C#N)c(-c2ccc(F)cc2)n1 [19v]
inhibition at 1 µM (hA3): 5% | half-life (in vitro): 18.6 min | solubility at 2 h [3]: 18 µM (≈ 5.48 µg/mL) | inhibition at 1 µM (hA2A): 25%

CNc1nc(-c2ccccc2)c(C#N)c(-c2ccc(O)cc2)n1 [19z]
A1AR selectivity (human A1AR [1]): > 1000 fold | Exp relative binding affinity (ΔΔGbind) (human A1AR [1]; Lig 2 relative to Lig 1 = 19a): 0.94 kcal/mol | Exp relative binding affinity (ΔΔGbind) (human A1AR [1]; Lig 2 relative to Lig 1 = 19ad): 0.28 kcal/mol | Exp absolute binding affinity (ΔGbind) (human A1AR [1]): -10.02 kcal/mol | Ki (human A1AR [1]): 0.0446 ± 0.0032 µM | Ki (human A1AR [2]): < 0.05 µM

C[C@]12CC[C@H]3[C@@H](CCC4=CC(=O)CC[C@@]43C)[C@@H]1CC[C@@H]2O [Testosterone, reference compound]
% Remanent (sampling time 60 min) [6]: 8.77% | half-life (in vitro): 17.1 min | microsomal CLint (in vitro): 27.8 µL/min/mg

CCCn1c(=O)c2[nH]c(-c3ccc(OCC(=O)NCCN)cc3)nc2n(CCC)c1=O [XAC]
functional behaviour at hA1ARs (cAMP) (hA1ARs): reverse the inhibitory effect of NECA on FSK-induced cAMP accumulation
